Results published in patent US8552013B2, “Heterocyclic compounds based on N6-substituted adenine, methods of their preparation, their use for preparation of drugs, cosmetic preparations and growth regulators, pharmaceutical preparations, cosmetic preparations and growth regulators containing these compounds” (USTAV Experimentalni Botaniky Akademie Ved Ceske Republiky, priority 2001, dated 2013).
Read-outs that look alike come from different tables or passages of the source.

What was measured:
Format in all cases: cell-based
Human lymphocytes = assay: Immunosuppressive activity, 3H-thymidine incorporation in concanavalin A activated lymphocytes; details: Lymphocyte, 72 hours, [3H]-TdR, read-out: Human lymphocytes ED50
Source text: One of the most important parameters of specific cellular immunity is proliferative response of lymphocytes to antigens or polyclonal mitogens. The majority of normal mammalian peripheral lymphocytes comprise resting cells. Antigens or nonspecific polyclonal mitogens have the capacity to activate lymphoid cells and this is accompanied by dramatic changes of intracellular metabolism (mitochondrial activity, protein synthesis, nucleic acids synthesis, formation of blastic cells and cellular proliferation). […] Variety of in vitro assays was developed to measure proliferative response of lymphocytes. The most commonly used is ^3H-thymidine incorporation method.
During cell proliferation, DNA has to be replicated before the cell is divided into two daughter cells. This close association between cell doublings and DNA synthesis is very attractive for assessing cell proliferation. If labelled DNA precursors are added to the cell culture, cells that are about to divide incorporate the labelled nucleotide into their DNA. Traditionally, those assays usually involve the use of radiolabelled nucleosides, particularly tritiated thymidine ([^3H]-TdR). The amount of [^3H]-TdR incorporated into the cellular DNA is quantified by liquid scintillation counting.
Human heparinized peripheral blood was obtained from healthy volunteers by cubital vein punction. The blood was diluted in PBS (1:3) and mononuclear cells were separated by centrifugation in Ficoll-Hypaque density gradient (Pharmacia, 1.077 g/ml) at 2200 rpm for 30 minutes. Following centrifugation, lymphocytes were washed in PBS and resuspended in cell culture medium (RMPI 1640, 2 mM glutamine, 100 U/ml penicillin, 100 μg/ml streptomycin, 10% fetal calf serum and sodium bicarbonate).
The cells were diluted at target density of 1,100,000 cells/ml were added by pipette (180 μl) into 96/well microtiter plates. Four-fold dilutions of the intended test concentration were added at time zero in 20 μl aliquots to the microtiter plate wells. Usually, test compound was evaluated at six 4-fold dilutions. In routine testing, the highest well concentration was 266.7 μM. All drug concentrations were examined in duplicates. All wells with exception of unstimulated controls were activated with 50 μl of concanavalin A (25 μg/ml). Incubations of cells with test compounds lasted for 72 hours at 37° C., in 5% CO2 atmosphere and 100% humidity. At the end of incubation period, the cells were assayed by using the [^3H]-TdR:
Cell cultures were incubated with 0.5 μCi (20 μl of stock solution 500 μCi/ml) per well for 6 hours at 37° C. and 5% CO2. The automated cell harvester was used to lyse cells in water and adsorb the DNA onto glass-fiber filters in the format of microtiter plate. The DNA incorporated [^3H]-TdR was retained on the filter while unincorporated material passes through. The filters were dried at room temperature overnight, sealed into a sample bag with 10-12 ml of scintillant. The amount of [^3H]-TdR present in each filter (in cpm) was determined by scintillation counting in a Betaplate liquid scintillation counter. The effective dose of immunosuppressant (ED) was calculated using the following equation: ED=(CCPMdrug exposed well/mean CCPMcontrol wells)×100%. The ED50 value, the drug concentration inhibiting proliferation of 50% of lymphocytes, was calculated from the obtained dose response curves.

G-361 = assay: Calcein AM cytotoxicity, G-361; details: read-out: IC 50, G-361
human skin fibroblasts [1] = assay: Series of experiments on short-term effects on human skin fibroblasts, conclusion; details: para at a dose of 40 μM
Method: (§1) All experiments were performed on early and mid passage cultures (about 20 to 40% lifespan completed) of normal human adult skin fibroblast line; designated ASF-2 & Senetek cell line (about 10-90% lifespan completed); designated as SF20. In order to check the effects of test compounds on senescent cells, late passage cells with more than 95% lifespan completed were used. ASF-2 and SF20 cell lines were established from a mammary skin biopsy obtained from a young, non-smoking and healthy […] at the time of breast reduction operation. Normal culture conditions of medium (DMEM) containing antibiotics, 10% foetal calf serum, and incubation at 37° C. with 95% humidity were used. The effects of the test chemicals were determined in the following conditions:
The experiments were performed to determine the effects of short-term treatment of ortho-topolin, meta-topolin, and para-topolin on cell attachment, survival, growth, apoptosis, actin cytoskeletal pattern, lysosomal activity, proteasomal activity and morphology of human skin fibroblasts in culture.

human skin fibroblasts [2] = assay: Cell survival, MTT assay; details: 3 days
Method: Cell survival after exposure to various doses was measured with the 3-(4,5 dimethylthiazol-2-yl)-2,5-diphenyltetrazolium bromide (MTT) assay. About 5,000 cells were seeded per well in a 96-well plate 24 h before the experiment. Cells were then treated with various doses of the compound to be tested. The wells were washed in Hank's and new medium was added. After three days, MTT (Sigma, M2128) was added at 0.5 mg/ml in medium. After 4 h, MTT was removed and isopropanol and HCl were added to dissolve the MTT crystals for 12-16 h. The absorbance at 595 nm was measured.

[3] = test system: senescent human skin fibroblasts; assay: Morphology of senescent cells; details: for appearance of senescent cells on longer treatment: 14 days, ortho and meta 80 μM and above; for appearance of senescent cells: after 7 days of treatment (para: 7 days and 14 days; meta: low concentrations)
Method: as §1
Senescent human skin fibroblasts were treated with various doses of para-topolin to see if this treatment could reverse age-related alterations in their morphology. […] The cells progressively became heterogeneous with large and flattened appearance.

[4] = test system: senescent human skin fibroblasts; assay: Numbers of surviving senescent cells (Coulter counter); details: 7 to 14 days of treatment
Method: Equal numbers of senescent cells were seeded in separate flasks and were treated with different concentrations of para-topolin. Cell numbers were determined by using a Coulter counter after trpsinization and resuspension of cells after 7 and 14 days of treatment.
Equal numbers of senescent cells were seeded in separate flasks and were treated with different concentrations of ortho-topolin. Cell numbers were determined by using a Coulter counter after trypsinisation and resuspension of cells, after 7 and 14 days of treatment.

human skin fibroblasts [5] = assay: Cell attachment of human skin fibroblasts; details: for attachment / Percent of cells attached, effect in words: ortho 40 to 400 μM, meta 40 to 200 μM; for Percent of cells attached, effect in words: para 40 μM to 1 mM; for Overall cell attachment improved (summary): para at 40, 80, 100, 160, 250 and 500 μM
Method: as §1, with “conditions: […]” for “conditions:”

Fc1ccccc1CNc1ncnc2nc[nH]c12 [6-(2-fluorobenzylamino)purine]
EC50 (Human lymphocytes): 2.5 µM | IC50 (G-361; 72 hours): 106 µM

Cc1ccccc1CNc1ncnc2nc[nH]c12 [6-(2-methylbenzylamino)purine]
IC50 (G-361; Homo sapiens, G-361, 72 hours): > 167 µM

Fc1cccc(CNc2ncnc3nc[nH]c23)c1 [6-(3-fluorobenzylamino)purine]
EC50 (Human lymphocytes): 18.2 µM

Ic1cccc(CNc2ncnc3nc[nH]c23)c1 [6-(3-iodobenzylamino)purine]
IC50 (G-361; Homo sapiens, G-361, 72 hours): > 167 µM

Cc1ccc(CNc2ncnc3nc[nH]c23)cc1 [6-(4-methylbenzylamino)purine]
IC50 (G-361; Homo sapiens, G-361, 72 hours): 160 µM

Oc1cccc(CNc2ncnc3nc[nH]c23)c1 [meta-topolin, 6-(3-hydroxybenzylamino)purine]
EC50 (Human lymphocytes): 5.6 µM | conclusion on short-term effects on human skin fibroblasts (human skin fibroblasts [1]): little or no beneficial effects | cells that did survive treatment (human skin fibroblasts [2]): 60% | cells killed (human skin fibroblasts [2]; between 0.01 and 1 μM): about 40% | effects on morphology of senescent cells ([3]; 200 μM and above, within 7 days): some negative effects | appearance of senescent cells on longer treatment [3]: unhealthy and sick | appearance of senescent cells [3]: no significant differences | numbers of surviving senescent cells [4]: reduces the number of surviving senescent cells in a dose dependent manner | reduction in cell attachment (human skin fibroblasts [5]; 400 μM, 6 hours): 20% | attachment (human skin fibroblasts [5]; 6 hours): about 80% | Percent of cells attached, effect in words (human skin fibroblasts [5]; 6 hours): not affected to any significant extent | Overall cell attachment improved (summary) (human skin fibroblasts [5]): No improvements

Oc1ccccc1CNc1ncnc2nc[nH]c12 [ortho-topolin, 6-(2-hydroxybenzylamino)purine]
conclusion on short-term effects on human skin fibroblasts (human skin fibroblasts [1]): little or no beneficial effects | reduction in cell survival (human skin fibroblasts [2]; 200-500 μM): 10-20% | dose until which not cytotoxic / no toxic effect on survival (MTT) (human skin fibroblasts [2]; range 0.01-500 μM): 100 µM | appearance of senescent cells on longer treatment [3]: unhealthy and sick | appearance of senescent cells [3]: no significant differences | numbers of surviving senescent cells [4]: reduces the number of surviving senescent cells significantly | attachment (human skin fibroblasts [5]; 6 hours): 80 to 90% | Percent of cells attached, effect in words (human skin fibroblasts [5]; 6 hours): not affected to any significant extent | Overall cell attachment improved (summary) (human skin fibroblasts [5]): No improvements
